Like-named read-outs stand apart in the source and are kept apart here.
Assays:
[1] = system: Staphylococcus epidermidis ATCC 12228; assay: Carrier test: H2O2 solutions treated with 400 to 420 nm light for 1 minute, applied to bacterial carriers after a dwell time; format: cell-based
Procedure: The solutions were applied to the targets after the dwell times of 1 minute, 5 minutes, 10 minutes, 30 minutes, 1 hour, 12 hours, 24 hours, 2, days, 5 days, and 7 days. After 7 days of dwell time, all solutions were treated with light again for 1 minute, and a target was treated after 1 minute of dwell time.

[2] = system: microbes
[3] = system: Desulfoviberio vulgaris Hildenborough (DvH); conditions: combined with radiation of 300 nm to 500 nm; in the presence of DvH, not replicated in sterile environment
Procedure: In Example 1, carbon steel coupons were incubated in the presence of oxygen and, as the oxidizing agent compound, hydrogen peroxide, combined with radiation of certain wavelengths of 300 nm to 500 nm in a synergistic reaction, with and without an inoculum of DvH. The metal loss of the carbon steel coupons was measured.

[4] = system: DvH
Procedure: In example 2, steel coupons were incubated in cultures of DvH for three days with and without exposure to an oxidizing agent compound, specifically hydrogen peroxide, combined with radiation of certain wavelengths 300-500 nm in a synergistic reaction and then the coupons were measured to determine the amount of metal loss due to corrosion.

[5] = 7 days*: reactivation with light of 400 to 420 nm for 1 minute, 1 minute dwell, control 9.80E+04
[6] = 7 days*: reactivation with light of 400 to 420 nm for 1 minute, applied after 1 minute dwell time
[7] = applied 1 min after solution exposed to light (400 to 420 nm, 1 minute)
[8] = applied 1 min after solution exposed to light, control 6.04E+05 CFU per carrier
[9] = applied 5 min after solution exposed to light
[10] = applied 5 min after solution exposed to light, control 6.04E+05
[11] = applied 10 min after solution exposed to light
[12] = applied 10 min after solution exposed to light, control 6.04E+05
[13] = applied 30 min after solution exposed to light
[14] = applied 30 min after solution exposed to light, control 6.04E+05
[15] = applied 1 hr after solution exposed to light
[16] = applied 1 hr after solution exposed to light, control 6.04E+05
[17] = applied 12 hr after solution exposed to light
[18] = applied 12 hr after solution exposed to light, control 9.20E+04
[19] = applied 24 hr after solution exposed to light
[20] = applied 24 hr after solution exposed to light, control 1.33E+05
[21] = applied 2 days after solution exposed to light
[22] = applied 2 days after solution exposed to light, control 3.00E+05
[23] = applied 5 days after solution exposed to light
[24] = applied 5 days after solution exposed to light, control 4.50E+04
[25] = applied 7 days after solution exposed to light
[26] = applied 7 days after solution exposed to light, control 9.80E+04

Row | SMILES | % Reduction vs. Control [1, 5] | CFU per carrier [1, 6] | CFU per carrier [1, 7] | % Reduction vs. Control [1, 8] | CFU per carrier [1, 9] | % Reduction vs. Control [1, 10] | CFU per carrier [1, 11] | % Reduction vs. Control [1, 12] | CFU per carrier [1, 13] | % Reduction vs. Control [1, 14] | CFU per carrier [1, 15] | % Reduction vs. Control [1, 16] | CFU per carrier [1, 17] | % Reduction vs. Control [1, 18] | CFU per carrier [1, 19] | % Reduction vs. Control [1, 20] | CFU per carrier [1, 21] | % Reduction vs. Control [1, 22] | CFU per carrier [1, 23] | % Reduction vs. Control [1, 24] | other results
1 | OO [0.3% H2O2, hydrogen peroxide] | nr | 1.03E+05 CFU per carrier | 1.10E+04 CFU per carrier | 98.18% | 3.00E+04 CFU per carrier | 95.04% | 1.98E+05 CFU per carrier | 67.24% | 7.00E+04 CFU per carrier | 88.42% | 7.00E+04 CFU per carrier | 88.42% | 1.27E+05 CFU per carrier | nr | 1.40E+04 CFU per carrier | 89.47% | 2.64E+05 CFU per carrier | 12.00% | 4.40E+04 CFU per carrier | 2.22% | CFU per carrier [1, 25]: 7.70E+04 CFU per carrier; % Reduction vs. Control [1, 26]: 21.43%
2 | OO [3% H2O2, hydrogen peroxide] | 89.80% | 1.00E+04 CFU per carrier | 7.00E+04 CFU per carrier | 88.42% | 7.00E+04 CFU per carrier | 88.42% | 3.10E+04 CFU per carrier | 94.87% | 2.80E+04 CFU per carrier | 95.37% | 7.10E+04 CFU per carrier | 88.25% | 1.80E+04 CFU per carrier | 80.43% | 2.10E+04 CFU per carrier | 84.21% | 9.00E+04 CFU per carrier | 70.00% | 3.29E+03 CFU per carrier | 92.69% | CFU per carrier [1, 25]: 1.50E+04 CFU per carrier; % Reduction vs. Control [1, 26]: 84.69%; microbes eliminated ([2]; 3% hydrogen peroxide together with radiation of 300 to 600 nanometers): 99.9999%; microbes eliminated ([2]; 3% solution alone, no radiation): approximately 30%
3 | OO [hydrogen peroxide] |  |  |  |  |  |  |  |  |  |  |  |  |  |  |  |  |  |  |  |  | effect on corrosion (weight loss) of carbon steel coupons [3]: reduce and/or eliminate corrosion in the presence of DvH; metal loss of coupons without treatment relative to coupons with treatment ([4]; 100 ppm (0.01%) hydrogen peroxide combined with radiation 300-500 nm, three days in DvH cultures): ~2 fold; corrosion of metal coupons ([4]; in the presence of hydrogen peroxide combined with radiation 300-500 nm, DvH cultures, three days): little to no corrosion
